From article PMC11788822, “Uncovering the potent antimicrobial activity of squaramide based anionophores – chloride transport and membrane disruption” (Chemical Science, 2025)
Values joined by “and” are separate entries in the source; they are usually repeats but may differ in a detail not shown here. Equal entries are not always repeated. Where two headings read alike, the source gives them in different places. Marks after values point to notes of the source that are not given here.

Legend:
[1] = test system: G. mellonella larvae; experiment: Galleria mellonella in vivo toxicity; conditions: larvae dosed at 10× IC50, monitored over 72 h
Experimental: Next, to assess the medicinal validity of compounds 1, 2, and 4 we investigated the in vivo toxicity of these compounds using the Galleria mellonella model organism. This model has been introduced as an alternative model to study microbial infections as it can be easily and inexpensively obtained and doesn't require specialised lab equipment or impose significant ethical constraints. […] Thus, G. mellonella larvae were dosed with a concentration of each compound at 10× IC50 and monitored for signs of toxicity or death over a 72 hour window.
(§1) Bacterial cultures were brought to early stationary phase overnight, in nutrient broth (containing 25/50 µg/mL Ampicillin for MRSA/K. pneumoniae, respectively) at 37 °C. Cultures were diluted to an OD600 = 0.01. Aliquots of Culture (100 µl) were added to 100 µL serially diluted compound (200 – 0.78 µM) in nutrient broth in a 96-well plate (Sarstedt, Germany).
Plates were incubated at 37 °C for 24 h and growth was measured at 600 nm, where growth was measured and represented relative to control.
Galleria mellonella toxicity studies
To ascertain inherent compound toxicity, 10 healthy G. mellonella larvae were selected and weighed ensuring to keep larval weight approx. 0.25 g (+ 0.05 g). This constituted one sample set for experiments. […] Larvae were subsequently monitored for up to […], for signs of toxicity, melanisation and death. […]
From an overnight culture brought to stationary phase (OD600 = ~1.0) was taken samples, brought to an OD600 = 0.2, which were treated with N-Ethoxycarbonylmethyl-6-methoxyquinolium Bromide (MQAE) (10 mM) for 1 h at 37 0C. […] 2 mL of samples were taken & transferred to a fluorescence cuvette, whereupon fluorescence was read (λexc = 350 nm (slit width = 5 nm) λem = 460 nm (slit width = 5 nm)) using a Cary Eclipse Fluorescence Spectrophotometer (Agilent Technologies). Subsequently samples were treated with the Compound of interest for 5 mins whereafter fluorescence was measured as previous, with intensity plotted relative to control, […]

[2] = test system: S. aureus; experiment: Growth inhibition assay, S. aureus; type: cell-based, Staphylococcus aureus; conditions: Staphylococcus aureus, 24 h, growth (OD 600 nm) relative to control, 37 °C
Experimental: To determine IC50/80 values, growth (optical density) of S. aureus, methicillin-resistant S. aureus (MRSA), P. aeruginosa, and K. pneumoniae when treated with a range of concentrations of each active compound in vitro was measured at 600 nm after a 24 h incubation period at 37 °C. Each compound was studied for activity below […], and those showing little activity above 200 μM, were noted as such, and omitted from further study.
Staphylococcus aureus culture conditions
S. aureus (ATCC33951) was cultured at 37 °C in Nutrient broth (Oxoid), in an orbital shaker at 200 rpm. Stocks were kept on nutrient agar, stored at 4 °C for up to 2 months, or as glycerol stocks (50/50 glycerol:culture), stored at -70 °C indefinitely. […]
as §1
Plates were incubated at 37 °C for 24 h and growth was measured at 600 nm, where growth was measured and represented relative to control. […]

[3] = parameters: method as in doi:10.1021/jo01097a026; conditions: for the relevant substitution pattern; cited from earlier work
[4] = Lucigenin Cl−/NO3− exchange assay in LUVs; conditions: Cl− transport, 0.4 mM POPC/cholesterol 7:3 LUVs, Hill fit at 270 s
Experimental: Given our objective was to use such transport behaviour as a method to disrupt anion homeostasis in bacteria, we also conducted anion transport assays in Large Unilamellar Liposomes (LUVs) using the well-established Lucigenin-based Cl^−/NO3^− exchange assay.[40] Briefly, LUVs containing the chloride sensitive dye lucigenin in a NaNO3 solution were prepared and a NaCl pulse was added to create a chloride concentration gradient. Upon addition of the putative transporter, the quenching of the fluorescence of lucigenin was monitored over time to assess Cl^− influx.
Lucigenin Cl-/NO3- anion exchange assay
LUV preparation and Lucigenin assays were carried out following procedures outlined by Valkenier and co-workers.8 Large unilamellar liposomes (LUVs) were synthesized using 1-palmitoyl-2-oleoyl-sn-glycero-3-phosphocholine (POPC)(11.2 µmol, soln. in CHCl3) and Cholesterol (4.8 µmol) mixed in a ratio of 7:3. This mixture was brought to dryness under gentle vacuum and subsequently, the mixture was rehydrated in an aqueous Lucigenin solution (1 mL, 0.8mM lucigenin in 225 mM NaNO3) and stirred for 1 h to obtain heterogeneous vesicles. After that, the vesicles underwent 9 freeze-thaw cycles and were extruded through a […] polycarbonate membrane 29 times to obtain monodisperse LUVs. A Sephadex G-100 size-exclusion column was employed to remove any unencapsulated lucigenin. The collected liposomes were diluted to 40 mL with 225 mM NaNO3 to obtain a homogeneous 0.4 mM liposome solution. Lucigenin fluorescence quenching was monitored in a time dependent manner using an Agilent Spectrofluorimeter to access Cl- influx (λ ex = 430 nm, λem = 505 nm).
Cl- transport behaviour was initiated at t=0 s by adding each compound as a solvate in DMSO followed by a 25 mM NaCl pulse (75µL, 1 M NaCl in […] NaNO3) to a 3 mL liposome solution. The data was collected for at least 600 s and then Triton X-100 (5% w/w in water) was added to lyse the liposomes, and normalize to 100% efflux. The recorded data was normalised and the fraction fluorescence intensity at 270 s of each tested concentration of transporters (mol%) was plotted against transporter concentration (mol%). The data obtained was fitted to the Hill equation to obtain the EC50 value at 270 s (the concentration to obtain the half maximum effect) by using Originlab 2024b or Graphpad Prism 10:
y = START + (END ‒ START) ∗ xn/(kn + xn)
Where n is the Hill coefficient, k presents the EC 50 value.

[5] = parameters: method as in PMID 34709282; conditions: Cl− transport; Reported by Gale and co-workers; cited from earlier work

O=c1c(Nc2cc(C(F)(F)F)cc(C(F)(F)F)c2)c(NC23CC4CC(CC(C4)C2)C3)c1=O [Compound 1]
signs of toxicity or death [1]: no appreciable signs of acute/chronic toxicity | IC80 [2]: ~200 µM | IC50 [2]: 0.781 µM | Hammett parameter (σ) [3]: 0.86 | EC50 (mol%) [4]: 0.0836 mol% and 0.084 mol%

O=c1c(Nc2ccc(Cl)c(Cl)c2)c(NC23CC4CC(CC(C4)C2)C3)c1=O [Compound 2]
signs of toxicity or death [1]: no appreciable signs of acute/chronic toxicity | IC80 [2]: 250 µM | IC50 [2]: 62.5 µM | Hammett parameter (σ) [3]: 0.6 | EC50 (mol%) [4]: 0.0993 mol%

O=c1c(Nc2ccc([N+](=O)[O-])cc2)c(NC23CC4CC(CC(C4)C2)C3)c1=O [Compound 4]
signs of toxicity or death [1]: no appreciable signs of acute/chronic toxicity | EC50 (mol%) [5]: 0.031 ^a mol% | IC50 [2]: 170 µM | Hammett parameter (σ) [3]: 0.78
